Data as given in patent US20230167127A1, “COMPOUNDS AND THEIR USE IN THE TREATMENT OF BACTERIAL INFECTION” (Hoffmann-La Roche Inc., priority 2020, published 2023).
Where two headings read alike, the source gives them in different places.

System: Escherichia coli ATCC 25922
Test: 50% growth inhibitory concentration (IC50) determination, Iso-Sensitest broth dilution
Format: cell-based
Conditions: strain Escherichia coli ATCC 25922, 10-point broth dilution, optical density at 600 nm over 16 h, read-out: Escherichia coli growth inhibition IC50
Method in brief: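 10-point twofold Iso-Sensitest broth dilution (e.g. 50 to 0.097 μM final) with DMSO stocks, incubated at 35±2° C. Growth followed by OD 600 nm every 20 min over 16 h; IC50 derived from growth inhibition during logarithmic phase.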

[1] = Escherichia coli, ATCC25922, 16 h

| Structure (SMILES) | IC50 [1] [nM] | IC50 [nM] |
| --- | --- | --- |
| NC1c2cccc(Cl)c2CC1CCNCC1CN(c2cnc3c(n2)NC(=O)CO3)C(=O)O1 (racemic) [Example 266, 6-[2-Oxo-5-[[2-[rac-1,2-trans-1-amino-4-chloro-2,3-dihydro-1H-inden-2-yl]ethylamino]methyl]-1,3-oxazolidin-3-yl]-4H-pyrazino[2,3-b][1,4]oxazin-3-one] | 206 | – |
| NC(CNCC1CN(c2ccc3c(n2)NC(=O)CO3)C(=O)O1)C1Cc2cccc(Cl)c2C1 (centres unmarked) [Example 158, 6-[5-[[[2-amino-2-(4-chloro-2,3-dihydro-1H-inden-2-yl)ethyl]amino]methyl]-2-oxo-1,3-oxazolidin-3-yl]-4H-pyrido[3,2-b][1,4]oxazin-3-one; formic acid] | 164 | – |
| O=C1COc2ncc(N3CC(CC(O)CNC4Cc5cccc(F)c5C4)OC3=O)nc2N1 (single isomer, unassigned; isomer a) [Example 83, 6-[5-[3-[(4-fluoro-2,3-dihydro-1H-inden-2-yl)amino]-2-hydroxypropyl]-2-oxo-1,3-oxazolidin-3-yl]-4H-pyrazino[2,3-b][1,4]oxazin-3-one, Isomer A; formic acid] | – | < 97.7 |
| N#CCOc1cc(F)c2c(c1)CC(CNCCC1CN(c3ccc4c(n3)NC(=O)CO4)C(=O)O1)C2 (centres unmarked) [Example 73, 2-[[7-fluoro-2-[[2-[2-oxo-3-(3-oxo-4H-pyrido[3,2-b][1,4]oxazin-6-yl)-1,3-oxazolidin-5-yl]ethylamino]methyl]-2,3-dihydro-1H-inden-5-yl]oxy]acetonitrile; formic acid] | < 97.7 | – |
| N#Cc1cccc2c1CC(CNCCC1(CN)CN(c3ccc4c(n3)NC(=O)CO4)C(=O)O1)C2 (centres unmarked) [Example 243, 2-[[2-[5-(aminomethyl)-2-oxo-3-(3-oxo-4H-pyrido[3,2-b][1,4]oxazin-6-yl)-1,3-oxazolidin-5-yl]ethylamino]methyl]-2,3-dihydro-1H-indene-4-carbonitrile] | 199 | – |
| O=C1COc2ccc(N3C(=O)OC4CC(NCCC5Cc6cccc(Cl)c6C5)CCC43)nc2N1 (racemic) [Example 32, 6-[rac-3a,7a-trans-6,7a-cis-6-[2-(4-chloro-2,3-dihydro-1H-inden-2-yl)ethylamino]-2-oxo-3a,4,5,6,7,7a-hexahydro-1,3-benzoxazol-3-yl]-4H-pyrido[3.2-b][1,4]oxazin-3-one] | 710 | – |
| O=C1COc2ncc(N3CC(CCNCC4Cc5c(F)cnc(-c6cnc[nH]6)c5C4)OC3=O)nc2N1 (centres unmarked) [Example 433, 6-[5-[2-[[4-Fluoro-1-(1H-imidazol-5-yl)-6,7-dihydro-5H-cyclopenta[c]pyridin-6-yl]methylamino]ethyl]-2-oxo-1,3-oxazolidin-3-yl]-4H-pyrazino[2,3-b][1,4]oxazin-3-one] | < 97.7 | – |
| Cc1ncc(F)c2c1CC(CNCCC1(C)CN(c3cnc4c(n3)NC(=O)CO4)C(=O)O1)C2 (centres unmarked) [Example 340, 6-[5-[2-[(4-fluoro-1-methyl-6,7-dihydro-5H-cyclopenta[e]pyridin-6-yl)methylamino]ethyl]-5-methyl-2-oxo-1,3-oxazolidin-3-yl]-4H-pyrazino[2,3-b][1,4]oxazin-3-one] | 358 | – |
| O=C1COc2ncc(N3CC(CCNCC4Cc5cc(OCCn6ccnc6)cc(F)c5C4)OC3=O)nc2N1 (centres unmarked) [Example 332, 6-[5-[2-[[4-fluoro-6-(2-imidazol-1-ylethoxy)-2,3-dihydro-1H-inden-2-yl]methylamino]ethyl]-2-oxo-1,3-oxazolidin-3-yl]-4H-pyrazino[2,3-b][1,4]oxazin-3-one] | 184 | – |
| Cc1ccnc2c1CC(NCCCC1CN(c3ccc4c(n3)NC(=O)CO4)C(=O)O1)C2 (centres unmarked) [Example 27, 6-[5-[3-[(4-methyl-6,7-dihydro-5H-cyclopenta[b]pyridin-6-yl)amino]propyl]-2-oxo-1,3-oxazolidin-3-yl]-4H-pyrido[3,2-b][1,4]oxazin-3-one] | 582 | – |
| Cc1ncc(F)c2c1CC(NCC(O)CC1CN(c3cnc4c(n3)NC(=O)CO4)C(=O)O1)C2 (single isomer, unassigned; isomer c) [Example 315, 6-[2-Oxo-5-[3-[(4-fluoro-1-methyl-6,7-dihydro-5H-cyclopenta[c]pyridin-6-yl)amino]-2-hydroxypropyl]-1,3-oxazolidin-3-yl]-4H-pyrazino[2,3-b][1,4]oxazin-3-one; formic acid, Isomer C] | 668 | – |
| NC1c2cccc(Cl)c2CC1CNC1CC2(C1)CN(c1ccc3c(n1)NC(=O)CO3)C(=O)O2 (racemic) [Example 210, 2,4-cis-6-[6-oxo-2-[[rac-1,2-trans-1-amino-4-chloro-2,3-dihydro-1H-inden-2-yl]methylamino]-5-oxa-7-azaspiro[3.4]octan-7-yl]-4H-pyrido[3,2-b][1,4]oxazin-3-one] | 295 | – |
| COc1cnc(Cl)c2c1CC(CNCCC1CN(c3cnc4c(n3)NC(=O)CO4)C(=O)O1)C2 (centres unmarked) [Example 58, 6-[5-[2-[(1-chloro-4-methoxy-6,7-dihydro-5H-cyclopenta[c]pyridin-6-yl)methylamino]ethyl]-2-oxo-1,3-oxazolidin-3-yl]-4H-pyrazino[2,3-b][1,4]oxazin-3-one; formic acid] | 190 | – |
| O=C1COc2ccc(N3CC(CCNCC4Cc5cccc(Cl)c5C4)OC3=O)nc2N1 (centres unmarked) [Example 1, 6-[5-[2-[(4-Chloro-2,3-dihydro-1H-inden-2-yl)methylamino]ethyl]-2-oxo-1,3-oxazolidin-3-yl]-4H-pyrido[3,2-b][1,4]oxazin-3-one; formic acid] | < 97.7 | – |

Other lines, results leading:

| IC50 [1] [nM] | IC50 [nM] | Structure (SMILES) |
| --- | --- | --- |
| 132 | – | NC1c2cccc(Cl)c2CC1CNCCCC1CN(c2ccc3c(n2)NC(=O)CO3)C(=O)O1 (racemic) [Example 227, 6-[2-Oxo-5-[3-[[rac-1,2-trans-1-amino-4-chloro-2,3-dihydro-1H-inden-2-yl]methylamino]propyl]-1,3-oxazolidin-3-yl]-4H-pyrido[3,2-b][1,4]oxazin-3-one] |
| < 97.7 | – | Cc1ncc(F)c2c1CC(C(C)NCC[C@@H]1CN(c3cnc4c(n3)NC(=O)CO4)C(=O)O1)C2 (some centres unmarked) [Example 331] |
| 102 | – | N#Cc1cc(OCc2cnn[nH]2)cc2c1CC(CNCCC1CN(c3cnc4c(n3)NC(=O)CO4)C(=O)O1)C2 (centres unmarked) [Example 425, 2-[[2-[2-Oxo-3-(3-oxo-4H-pyrazino[2,3-b][1,4]oxazin-6-yl)-1,3-oxazolidin-5-yl]ethylamino]methyl]-6-(1N-triazol-5-ylmethoxy)-2,3-dihydro-1H-indene-4-carbonitrile] |
| < 97.7 | – | N[C@H]1c2cccc(Cl)c2C[C@@H]1CNCC[C@H]1CN(c2cnc3c(n2)NC(=O)CO3)C(=O)O1 [Example 401, 6-[(5S)-5-[2-[[(1R,2R)-1-amino-4-chloro-2,3-dihydro-1H-inden-2-yl]methylamino]ethyl]-2-oxo-1,3-oxazolidin-3-yl]-4H-pyrazino[2,3-b][1,4]oxazin-3-one] |
| < 97.7 | – | Cc1nc(OCC2(N)CC2)c(C#N)c2c1CC(CNCCC1CN(c3ccc4c(n3)NC(=O)CO4)C(=O)O1)C2 (centres unmarked) [Example 214, 3-[(1-aminocyclopropyl)methoxy]-1-methyl-6-[[2-[2-oxo-3-(3-oxo-4H-pyrido[3,2-b][1,4]oxazin-6-yl)-1,3-oxazolidin-5-yl]ethylamino]methyl]-6,7-dihydro-5H-cyclopenta[c]pyridine-4-carbonitrile] |
| – | 152 | N#Cc1cccc2c1CC(NCC(O)CC1CN(c3cnc4c(n3)NC(=O)CO4)C(=O)O1)C2 (single isomer, unassigned; isomer b) [Example 82, 2-[[2-hydroxy-3-[2-oxo-3-(3-oxo-4H-pyrazino[2,3-b][1,4]oxazin-6-yl)-1,3-oxazolidin-5-yl]propyl]amino]-2,3-dihydro-1H-indene-4-carbonitrile, Isomer B; formic acid] |
| – | 153 | N#Cc1cccc2c1CC(NC1CCC3(CC1)CN(c1ccc4c(n1)NC(=O)CO4)C(=O)O3)C2 (single isomer, unassigned; isomer b) [Example 40, 2-[[2-oxo-3-(3-oxo-4H-pyrido[3,2-b][1,4]oxazin-6-yl)-1-oxa-3-azaspiro[4.5]decan-8-yl]amino]-2,3-dihydro-1H-indene-4-carbonitrile. Isomer B; formic acid] |
| 123 | – | NC1c2cccc(Cl)c2CC1CN1CC(C2CN(c3cnc4c(n3)NC(=O)CO4)C(=O)O2)C1 (racemic) [Example 205, 6-[5-[1-[(rac-1,2-trans-1-amino-4-chloro-2,3-dihydro-1H-inden-2-yl)methyl]azetidin-3-yl]-2-oxo-1,3-oxazolidin-3-yl]-4H-pyrazino[2,3-b][1,4]oxazin-3-one] |
| 98.1 | – | N#Cc1c(OCCN)ccc2c1CC(CNCCC1CN(c3ccc4c(n3)NC(=O)CO4)C(=O)O1)C2 (centres unmarked) [Example 128, 5-(2-aminoethoxy)-2-[[2-[2-oxo-3-(3-oxo-4H-pyrido[3,2-b][1,4]oxazin-6-yl)-1,3-oxazolidin-5-yl]ethylamino]methyl]-2,3-dihydro-1H-indene-4-carbonitrile; formic acid] |
| 69.7 | – | Cc1ncc(F)c2c1CC(CN1CCC3(CC1)CN(c1ccc4c(n1)NC(=O)CO4)C(=O)O3)C2 (centres unmarked) [Example 72, 6-[8-[(4-fluoro-1-methyl-6,7-dihydro-5H-cyclopenta[c]pyridin-6-yl)methyl]-2-oxo-1-oxa-3,8-diazaspiro[4.5]decan-3-yl]-4H-pyrido[3,2-b][1,4]oxazin-3-one] |
| 1120 | – | CNC(=O)COc1cc(Cl)c2c(c1)C(N)C(CNCCC1CN(c3cnc4c(n3)NC(=O)CO4)C(=O)O1)C2 (racemic) [Example 399, 2-[[rac-2,3-trans-3-Amino-7-chloro-2-[[2-[2-oxo-3-(3-oxo-4H-pyrazino[2,3-b][1,4]oxazin-6-yl)-1,3-oxazolidin-5-yl]ethylamino]methyl]-2,3-dihydro-1H-inden-5-yl]oxy]-N-methylacetamide; formic acid] |
| 261 | – | CS(=O)(=O)NCCOc1cc(C#N)c2c(c1)CC(CNCCC1CN(c3ccc4c(n3)NC(=O)CO4)C(=O)O1)C2 (centres unmarked) [Example 115, N-[2-[[7-cyano-2-[[2-[2-oxo-3-(3-oxo-4H-pyrido[3,2-b][1,4]oxazin-6-yl)-1,3-oxazolidin-5-yl]ethylamino]methyl]-2,3-dihydro-1H-inden-5-yl]oxy]ethyl]methanesulfonamide] |
